Reference: the supplement of paper PMC10307832

Key:
Assay in all cases: relative viability (nuclei count vs DMSO), 5 days (fraction); higher = more cells survive
Sunitinib + Palbociclib = compound: CCN(CC)CCNC(=O)c1c(C)[nH]c(/C=C2\C(=O)Nc3ccc(F)cc32)c1C [Sunitinib] + CC(=O)c1c(C)c2cnc(Nc3ccc(N4CCNCC4)cn3)nc2n(C2CCCC2)c1=O [Palbociclib] (partner 0.5 µM)
Summary of the method: (§1)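 Five library-drug doses in √10 steps were combined with a fixed anchor-drug dose, or a single drug was given alone, by pin tool to lung cancer cell lines in 1536-well plates the day after seeding. Nuclei were stained and counted after 5 days. Relative viability is the nuclei count in treated wells over that in vehicle wells, taken as the median of duplicate plates.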

Sunitinib + Pemetrexed = compound: CCN(CC)CCNC(=O)c1c(C)[nH]c(/C=C2\C(=O)Nc3ccc(F)cc32)c1C [Sunitinib] + Nc1nc2[nH]cc(CCc3ccc(C(=O)N[C@@H](CCC(=O)O)C(=O)O)cc3)c2c(=O)[nH]1 [Pemetrexed] (partner 0.2 µM)
Summary of the method: as §1

Sunitinib + Olaparib = compound: CCN(CC)CCNC(=O)c1c(C)[nH]c(/C=C2\C(=O)Nc3ccc(F)cc32)c1C [Sunitinib] + O=C(c1cc(Cc2n[nH]c(=O)c3ccccc23)ccc1F)N1CCN(C(=O)C2CC2)CC1 [Olaparib] (partner 8 µM)
Summary of the method: as §1

Sunitinib + Alpelisib = compound: CCN(CC)CCNC(=O)c1c(C)[nH]c(/C=C2\C(=O)Nc3ccc(F)cc32)c1C [Sunitinib] + Cc1nc(NC(=O)N2CCC[C@H]2C(N)=O)sc1-c1ccnc(C(C)(C)C(F)(F)F)c1 [Alpelisib] (partner 2 µM)
Summary of the method: as §1

Cell Line	relative viability (Sunitinib + Palbociclib; first compound 0.02 µM)	relative viability (Sunitinib + Palbociclib; first compound 0.06325 µM)	relative viability (Sunitinib + Palbociclib; first compound 0.2 µM)	relative viability (Sunitinib + Palbociclib; first compound 0.6325 µM)	relative viability (Sunitinib + Palbociclib; first compound 2 µM)	relative viability (Sunitinib + Pemetrexed; first compound 0.02 µM)	relative viability (Sunitinib + Pemetrexed; first compound 0.06325 µM)	relative viability (Sunitinib + Pemetrexed; first compound 0.2 µM)	relative viability (Sunitinib + Pemetrexed; first compound 0.6325 µM)	relative viability (Sunitinib + Pemetrexed; first compound 2 µM)	relative viability (Sunitinib + Olaparib; first compound 0.02 µM)	relative viability (Sunitinib + Olaparib; first compound 0.06325 µM)	relative viability (Sunitinib + Olaparib; first compound 0.2 µM)	relative viability (Sunitinib + Olaparib; first compound 0.6325 µM)	relative viability (Sunitinib + Olaparib; first compound 2 µM)	relative viability (Sunitinib + Alpelisib; first compound 0.02 µM)	relative viability (Sunitinib + Alpelisib; first compound 0.06325 µM)	relative viability (Sunitinib + Alpelisib; first compound 0.2 µM)	relative viability (Sunitinib + Alpelisib; first compound 0.6325 µM)	relative viability (Sunitinib + Alpelisib; first compound 2 µM)
LU99A	0.338	0.473	0.417	0.433	0.442	0.199	0.185	0.198	0.151	0.162	0.267	0.27	0.271	0.321	0.295	0.512	0.547	0.586	0.566	–
LXF-289	0.599	0.621	0.597	0.619	0.603	0.882	0.972	0.925	0.945	0.874	1.03	1.06	1.2	1.11	1.12	1.01	1.02	1.13	1.12	1.04
NCI-H522	0.961	0.924	1.11	1.03	0.909	0.861	1.12	0.915	0.858	0.999	0.623	0.574	0.75	0.616	0.641	–	–	–	–	–
NCI-H596	–	–	–	–	–	0.535	0.465	0.507	0.582	0.486	0.688	0.678	0.679	0.686	0.651	0.476	0.596	0.604	0.485	0.42
NCI-H727	0.598	0.697	0.671	0.616	0.667	–	–	–	–	–	0.747	0.649	0.717	0.593	0.778	0.532	0.546	0.647	0.559	0.537
NCI-H1299	–	–	–	–	–	–	–	–	–	–	0.935	0.977	0.998	1.02	0.991	1.02	–	1.06	1.08	1.06
NCI-H1563	–	–	–	–	–	0.759	0.727	0.782	0.721	0.852	–	–	–	–	–	0.984	0.952	0.884	0.93	0.965
NCI-H1648	0.257	0.328	0.239	0.279	0.308	0.897	0.737	0.898	0.704	0.835	1.11	0.583	–	0.751	0.707	–	–	–	–	–
NCI-H1650	0.359	0.472	0.384	0.392	0.33	0.399	0.307	0.411	0.346	0.448	0.744	0.742	0.822	0.791	0.738	–	–	–	–	–
NCI-H1703	–	–	–	–	–	–	–	–	–	–	0.229	0.267	0.251	0.154	0.157	0.211	0.161	0.199	0.154	0.188
NCI-H2342	0.446	0.541	0.566	0.549	0.579	0.731	0.821	0.808	0.739	0.843	0.48	0.456	0.527	0.475	0.414	–	–	–	–	–
